Laboratory results published in publication PMC4052943 (BioMed Research International, 2014).
Where two headings read alike, the source gives them in different places.

Legend:
[1] = test system: Salmonella typhimurium TA97a; experiment: Ames antimutagenicity assay (preincubation);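 note: compound and mutagen preincubated together 30 min at 37 °C before adding bacteria, then plated on minimal glucose agar for 48 h and His+ revertant colonies counted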
Procedure: (§1) In the preincubation experiment, test compounds and mutagen, each having a volume of 0.1 mL of varying concentrations, were preincubated at 37°C for 30 min and then 0.1 mL of 1 × 10^7 CFU/mL density of the bacterial culture was added, followed by the addition of 2.5 mL of top agar at 45°C (containing 0.5% NaCl and 0.6% agar) supplemented with 0.5 mM histidine-biotin. […] The combined solutions were vortexed and poured onto minimal glucose plates (40% glucose solution and Vogel Bonner medium). The plates were incubated at 37°C for 48 h and the numbers of histidine-independent revertants colonies were scored.
(§2) Survival of the bacteria was routinely monitored for each experiment. Parallel controls were run with compounds alone at all concentrations to test the possible toxicity. The concentrations of the test samples for investigating the antimutagenicity were 50, 100, 200, and 500 μM. […] All the test samples and mutagens were dissolved in DMSO (final conc., 0.01%). […] Plates were set up in triplicate for each concentration and the entire experiment was repeated three times. Inhibition of mutagenicity was expressed as percentage decrease of reverse mutation and calculated as (1) Percent inhibition=[(a−b)/(a−c)]×100, where a = number of histidine revertants induced by mutagen, b = number of histidine revertants induced by mutagen in the presence of test compound, and c = number of revertants induced in negative control.

[2] = test system: Salmonella typhimurium strains TA97a, TA98, TA100, and TA102; experiment: Ames test, statements over all tester strains
Procedure: as §1, §2

[3] = test system: Salmonella typhimurium TA100
Procedure: as §1, §2

[4] = test system: Salmonella typhimurium TA102
Procedure: as §1, §2

O=C1O[C@H]2[C@@H]3OC(=O)c4cc(O)c(O)c(O)c4-c4c(O)c(O)c5oc(=O)c6c(c(O)c(O)c7oc(=O)c4c5c76)-c4c(cc(O)c(O)c4O)C(=O)OC[C@H]3OC(O)[C@@H]2OC(=O)c2cc(O)c(O)c(O)c2-c2c1cc(O)c(O)c2O (mixture of isomers) [Punicalagin]
inhibition at 50 µM ([1]; Salmonella enterica, TYPHIMURIUM, read-out: % inhibition of mutagenicity, TA 97a, 50 μM + NaN3, no S9): 10.2% | inhibition at 100 µM ([1]; Salmonella enterica, TYPHIMURIUM, read-out: % inhibition of mutagenicity, TA 97a, 100 μM + 2AF, S9): 37.1% | inhibition at 100 µM ([1]; Salmonella enterica, TYPHIMURIUM, read-out: % inhibition of mutagenicity, TA 97a, 100 μM + BP, S9): 34.3% | inhibition at 100 µM ([1]; Salmonella enterica, TYPHIMURIUM, read-out: % inhibition of mutagenicity, TA 97a, 100 μM + MMS, no S9): 19.9% | inhibition at 100 µM ([1]; Salmonella enterica, TYPHIMURIUM, read-out: % inhibition of mutagenicity, TA 97a, 100 μM + NaN3, no S9): 34.2% | inhibition at 250 µM ([1]; Salmonella enterica, TYPHIMURIUM, read-out: % inhibition of mutagenicity, TA 97a, 250 μM + BP, S9): 53.5% | inhibition at 250 µM ([1]; Salmonella enterica, TYPHIMURIUM, read-out: % inhibition of mutagenicity, TA 97a, 250 μM + MMS, no S9): 42.4% | inhibition at 250 µM ([1]; Salmonella enterica, TYPHIMURIUM, read-out: % inhibition of mutagenicity, TA 97a, 250 μM + NaN3, no S9): 54.9% | inhibition at 500 µM ([1]; Salmonella enterica, TYPHIMURIUM, read-out: % inhibition of mutagenicity, TA 97a, 500 μM + 2AF, S9): 78.5% | inhibition at 500 µM ([1]; Salmonella enterica, TYPHIMURIUM, read-out: % inhibition of mutagenicity, TA 97a, 500 μM + BP, S9): 76.7% | inhibition at 500 µM ([1]; Salmonella enterica, TYPHIMURIUM, read-out: % inhibition of mutagenicity, TA 97a, 500 μM + MMS, no S9): 72% | inhibition at 500 µM ([1]; Salmonella enterica, TYPHIMURIUM, read-out: % inhibition of mutagenicity, TA 97a, 500 μM + NaN3, no S9): 74.4% | Number of His+ revertants colonies/plate ([1]; TA 97a, 50 μM + 2AF, S9): 304.7 ± 19.8 colonies/plate | Number of His+ revertants colonies/plate ([1]; TA 97a, 50 μM + BP, S9): 645.3 ± 28.7 colonies/plate | Number of His+ revertants colonies/plate ([1]; TA 97a, 50 μM + MMS, no S9): 418.3 ± 11.7 colonies/plate | Number of His+ revertants colonies/plate ([1]; TA 97a, 50 μM + NaN3, no S9): 244.3 ± 6.7 colonies/plate | Number of His+ revertants colonies/plate ([1]; TA 97a, 100 μM + 2AF, S9): 270.3 ± 10.1 colonies/plate | Number of His+ revertants colonies/plate ([1]; TA 97a, 100 μM + BP, S9): 538.3 ± 28.9 colonies/plate | Number of His+ revertants colonies/plate ([1]; TA 97a, 100 μM + MMS, no S9): 390.7 ± 10.2 colonies/plate | Number of His+ revertants colonies/plate ([1]; TA 97a, 100 μM + NaN3, no S9): 221.0 ± 7.1 colonies/plate | Number of His+ revertants colonies/plate ([1]; TA 97a, 250 μM + BP, S9): 431.0 ± 18.4 colonies/plate | Number of His+ revertants colonies/plate ([1]; TA 97a, 250 μM + MMS, no S9): 326.0 ± 7.8 colonies/plate | Number of His+ revertants colonies/plate ([1]; TA 97a, 250 μM + NaN3, no S9): 202.3 ± 8.7 colonies/plate | Number of His+ revertants colonies/plate ([1]; TA 97a, 500 μM + 2AF, S9): 220.0 ± 9.3 colonies/plate | Number of His+ revertants colonies/plate ([1]; TA 97a, 500 μM + BP, S9): 316.0 ± 17.6 colonies/plate | Number of His+ revertants colonies/plate ([1]; TA 97a, 500 μM + MMS, no S9): 251.0 ± 9.0 colonies/plate | % inhibition of mutagenicity ([1]; TA 97a, 500 μM + MMS, no S9, 500 µM): 72.1% | Number of His+ revertants colonies/plate ([1]; TA 97a, 500 μM + MMS, no S9, listed as PC): 251 colonies/plate | Number of His+ revertants colonies/plate ([1]; TA 97a, 500 μM + NaN3, no S9): 195.0 ± 10.8 colonies/plate | toxicity to Salmonella typhimurium strains ([2]; 50–500 μM, absence of S9): No toxicity | inhibition at 500 µM ([2]; Salmonella enterica, TYPHIMURIUM, read-out: inhibition of 2AF- and BP-induced mutagenicity (range over strains)): 76.7 to 85% | mutagenic activity ([2]; TA97a, TA98, TA100, TA102, with or without S9, plate incorporation assay): No mutagenic activity | maximum inhibition of mutagenicity ([2]; against sodium azide, MMS, BP, 2AF, 50–500 μM): up to 90% | Number of His+ revertants colonies/plate ([3]; Salmonella typhimurium): 175.3 ± 14.3 colonies/plate | Number of His+ revertants colonies/plate ([3]; TA 100, 50 μM alone (negative control), 2AF tables): 136.0 ± 11.7 colonies/plate | Number of His+ revertants colonies/plate ([3]; TA 100, 50 μM alone (negative control), BP tables): 136.0 ± 11.7 colonies/plate | Number of His+ revertants colonies/plate ([3]; TA 100, 50 μM alone (negative control), MMS tables): 189.7 ± 12.0 colonies/plate | Number of His+ revertants colonies/plate ([3]; TA 100, 50 μM alone (negative control), NaN3 tables): 189.7 ± 12.0 colonies/plate | Number of His+ revertants colonies/plate ([3]; TA 100, 100 μM alone (negative control), 2AF tables): 162.7 ± 15.0 colonies/plate | Number of His+ revertants colonies/plate ([3]; TA 100, 100 μM alone (negative control), BP tables): 162.7 ± 15.0 colonies/plate | Number of His+ revertants colonies/plate ([3]; TA 100, 100 μM alone (negative control), MMS tables): 181.0 ± 7.4 colonies/plate | Number of His+ revertants colonies/plate ([3]; TA 100, 100 μM alone (negative control), NaN3 tables): 181.0 ± 7.4 colonies/plate | Number of His+ revertants colonies/plate ([3]; TA 100, 250 μM alone (negative control), BP tables): 175.3 ± 14.3 colonies/plate | Number of His+ revertants colonies/plate ([3]; TA 100, 250 μM alone (negative control), MMS tables): 165.3 ± 5.4 colonies/plate | Number of His+ revertants colonies/plate ([3]; TA 100, 250 μM alone (negative control), NaN3 tables): 165.3 ± 5.4 colonies/plate | Number of His+ revertants colonies/plate ([3]; TA 100, 500 μM alone (negative control), 2AF tables): 191.0 ± 15.0 colonies/plate | Number of His+ revertants colonies/plate ([3]; TA 100, 500 μM alone (negative control), BP tables): 191.0 ± 15.0 colonies/plate | Number of His+ revertants colonies/plate ([3]; TA 100, 500 μM alone (negative control), MMS tables): 187.7 ± 9.8 colonies/plate | Number of His+ revertants colonies/plate ([3]; TA 100, 500 μM alone (negative control), NaN3 tables): 187.7 ± 9.8 colonies/plate | Number of His+ revertants colonies/plate ([4]; Salmonella typhimurium): 356.0 ± 10.4 colonies/plate | Number of His+ revertants colonies/plate ([4]; TA 102, 50 μM alone (negative control), 2AF tables): 320.0 ± 21.9 colonies/plate | Number of His+ revertants colonies/plate ([4]; TA 102, 50 μM alone (negative control), BP tables): 320.0±21.9 colonies/plate | Number of His+ revertants colonies/plate ([4]; TA 102, 50 μM alone (negative control), MMS tables): 292.0 ± 7.7 colonies/plate | Number of His+ revertants colonies/plate ([4]; TA 102, 50 μM alone (negative control), NaN3 tables): 306.7 ± 13.3 colonies/plate | Number of His+ revertants colonies/plate ([4]; TA 102, 100 μM alone (negative control), 2AF tables): 341.0 ± 18.3 colonies/plate | Number of His+ revertants colonies/plate ([4]; TA 102, 100 μM alone (negative control), BP tables): 341.0 ± 18.3 colonies/plate | Number of His+ revertants colonies/plate ([4]; TA 102, 100 μM alone (negative control), MMS tables): 278.0 ± 12.8 colonies/plate | Number of His+ revertants colonies/plate ([4]; TA 102, 100 μM alone (negative control), NaN3 tables): 275.3 ± 22.1 colonies/plate | Number of His+ revertants colonies/plate ([4]; TA 102, 250 μM alone (negative control), BP tables): 356.0 ± 10.4 colonies/plate | Number of His+ revertants colonies/plate ([4]; TA 102, 250 μM alone (negative control), MMS tables): 255.0 ± 13.2 colonies/plate | Number of His+ revertants colonies/plate ([4]; TA 102, 250 μM alone (negative control), NaN3 tables): 250.0 ± 22.9 colonies/plate | Number of His+ revertants colonies/plate ([4]; TA 102, 500 μM alone (negative control), 2AF tables): 358.0 ± 19.9 colonies/plate | Number of His+ revertants colonies/plate ([4]; TA 102, 500 μM alone (negative control), BP tables): 358.0 ± 19.9 colonies/plate | Number of His+ revertants colonies/plate ([4]; TA 102, 500 μM alone (negative control), MMS tables): 254.0 ± 14.3 colonies/plate | Number of His+ revertants colonies/plate ([4]; TA 102, 500 μM alone (negative control), NaN3 tables): 231.7 ± 24.8 colonies/plate
